Assay results taken from ChEMBL document CHEMBL1201862, “PubChem BioAssay data set” (2004).
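How tested: cells in 96-well plates exposed to compound for 48 hours at five concentrations. At the GI50, growth is halved.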 Activity calls are given as the source filed them. Cut-off read from the data, not from the text of the source: active = GI50 up to about 1.1 µM and inactive = higher.

Tests used:
Assay in all cases: NCI-60 cell line screen, 48 h
CAKI-1 = tested on: CAKI-1
COLO 205 = tested on: COLO 205
EKVX = tested on: EKVX
HL-60 = tested on: HL-60
HT-29 = tested on: HT-29
IGROV-1 = tested on: IGROV-1
K562 = tested on: K562
KM12 = tested on: KM12
MCF7 = tested on: MCF7
MDA-MB-231 = tested on: MDA-MB-231
NCI/ADR-RES = tested on: NCI/ADR-RES
OVCAR-4 = tested on: OVCAR-4
PC-3 = tested on: PC-3
SF-268 = tested on: SF-268
SK-MEL-28 = tested on: SK-MEL-28
SN12C = tested on: SN12C
SNB-19 = tested on: SNB-19
T47D = tested on: T47D
HOP-92 = tested on: HOP-92

Measured: GI50

CC(C)c1ccc2nc3ccc(C(=O)NCCN(C)C)cn3c(=O)c2c1
inactive: CAKI-1 23.1 µM | COLO 205 16.2 µM | EKVX 16.4 µM | HL-60 16.3 µM | HT-29 7.74 µM | IGROV-1 30.8 µM | K562 2.57 µM | KM12 17.3 µM | MCF7 16.3 µM | MDA-MB-231 15 µM | NCI/ADR-RES 18.2 µM | OVCAR-4 24.7 µM | PC-3 13.6 µM | SF-268 17.5 µM | SK-MEL-28 16.5 µM | SN12C 14.8 µM | SNB-19 35 µM | T47D 19.1 µM

NN(CC(=O)O)CC(=O)O
inactive: CAKI-1 > 100 µM | COLO 205 > 100 µM | EKVX > 100 µM | HL-60 > 100 µM | HT-29 > 100 µM | IGROV-1 > 100 µM | K562 > 100 µM | KM12 > 100 µM | MCF7 > 100 µM | MDA-MB-231 > 100 µM | NCI/ADR-RES > 100 µM | OVCAR-4 > 100 µM | PC-3 > 100 µM | SF-268 > 100 µM | SK-MEL-28 > 100 µM | SN12C > 100 µM | SNB-19 > 100 µM | T47D > 100 µM

Cc1nc(C(N)=S)sc1C(=O)C/C(=N/N)C(=O)Nc1ccc(Cl)cc1
inactive: CAKI-1 > 100 µM | EKVX 52.8 µM | HT-29 58.3 µM | IGROV-1 16.5 µM | K562 31.3 µM | KM12 77.1 µM | MCF7 43.1 µM | MDA-MB-231 > 100 µM | NCI/ADR-RES 60.4 µM | OVCAR-4 78.3 µM | PC-3 72.9 µM | SF-268 > 100 µM | SK-MEL-28 > 100 µM | SN12C > 100 µM | SNB-19 72.4 µM | T47D 46.1 µM

C/C(=C\COP(=O)(O)CP(=O)(O)O)CC/C=C(\C)CNc1ccccc1
inactive: CAKI-1 > 100 µM | COLO 205 > 100 µM | EKVX 15.7 µM | HL-60 > 100 µM | HT-29 > 100 µM | IGROV-1 > 100 µM | K562 > 100 µM | KM12 > 100 µM | MCF7 > 100 µM | MDA-MB-231 > 100 µM | NCI/ADR-RES > 100 µM | PC-3 > 100 µM | SF-268 > 100 µM | SK-MEL-28 > 100 µM | SN12C > 100 µM | SNB-19 > 100 µM | T47D > 100 µM

CC1(C)CCCCCCC2CC2CCCCCC(C)(C)C1=O (centres undefined)
inactive: CAKI-1 > 100 µM | COLO 205 63.1 µM | EKVX 41.9 µM | HL-60 16.6 µM | HOP-92 62.5 µM | HT-29 42 µM | IGROV-1 > 100 µM | K562 29.9 µM | KM12 92.5 µM | MDA-MB-231 60.3 µM | NCI/ADR-RES 99.3 µM | OVCAR-4 > 100 µM | PC-3 > 100 µM | SF-268 > 100 µM | SK-MEL-28 > 100 µM | SN12C > 100 µM | SNB-19 > 100 µM | T47D 36.9 µM

COc1cc2c(c(OC)c1OC)C(=O)[C@@H]1[C@H]2N1C(N)=O
inactive: CAKI-1 > 100 µM | COLO 205 91.2 µM | EKVX > 100 µM | HL-60 > 100 µM | HT-29 > 100 µM | IGROV-1 94.8 µM | K562 > 100 µM | KM12 > 100 µM | MCF7 > 100 µM | MDA-MB-231 > 100 µM | NCI/ADR-RES > 100 µM | PC-3 > 100 µM | SF-268 > 100 µM | SK-MEL-28 > 100 µM | SN12C > 100 µM | SNB-19 > 100 µM | T47D > 100 µM
